Measured values from PubChem BioAssay (NCI).
Where “and” joins values, the source holds several entries; their conditions need not be identical. Equal values may be shown once.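 Five concentrations, 48 hours, 96-well plates. At the GI50, growth is halved. TGI marks complete inhibition of growth.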

Key:
Assay in all cases: NCI tumour cell line growth inhibition, 48 h
[1] = system: SK-MEL-28 melanoma
[2] = system: SF-295 CNS
[3] = system: RXF 393 renal
[4] = system: CAKI-1 renal
[5] = system: M14 melanoma
[6] = system: A498 renal
[7] = system: OVCAR-8 ovarian
[8] = system: NCI-H226 lung
[9] = system: MDA-N
[10] = system: NCI-H460 lung

Structure (SMILES)	TGI [1]	TGI [2]	TGI [3]	TGI [4]	TGI [5]	TGI [6] [µM]	TGI [7]	TGI [8]	TGI [9] [µM]	TGI [10]	GI50 [3] [nM]	GI50 [4] [nM]	GI50 [5] [nM]	GI50 [10] [nM]	GI50 [7] [nM]	GI50 [1] [nM]
CN(C)C=Nc1c2c(nc3ccccc13)CCCC2	> 100 µM	> 100 µM	> 100 µM	> 100 µM	> 100 µM	> 100	> 100 µM	> 100 µM	> 100							
Cc1csc2c(=O)n(COCc3ccccc3)c(=O)[nH]c12	> 100 µM	> 100 µM	> 100 µM	> 100 µM	> 100 µM	> 100	> 100 µM	> 100 µM	> 100	> 100 µM						
Nc1nc(N)c2nc(CNc3ccc(C(=O)NC(CCNC(=O)c4ccccc4C(=O)O)C(=O)O)cc3)cnc2n1 (stereo unspecified)	> 100 µM	> 100 µM	> 100 µM	> 100 µM	> 100 µM	> 100	> 100 µM	> 100 µM	> 100	> 100 µM	967	66.6	73.7	14.4	8.13	
Clc1ccc(Nc2nnc(CNc3ccc(-c4nnc(Nc5ccc(Cl)cc5)o4)cc3)o2)cc1	34.7 µM	38.4 µM	34.6 µM	33.9 µM	43.2 µM	28.9	25.7 µM	47.3 µM	44.5	41.6 µM						
NC(CS)C(=O)NCCNc1ccc(NCCNC(=O)C(N)CS)c2c1C(=O)c1c(O)ccc(O)c1C2=O (stereo unspecified)	2 µM and 1.81 µM	0.276 µM and 0.0386 µM	0.554 µM and 0.455 µM	0.566 µM and 0.104 µM	1.28 µM and 1.1 µM	0.344	0.574 µM and 0.174 µM	0.0616 µM and 0.0476 µM	1.68	0.208 µM and 0.125 µM	103				10.8	430
CCOC(=O)c1cc([N+](=O)[O-])cc([N+](=O)[O-])c1Sc1ncnc2nc[nH]c12	11.2 µM	38.1 µM	3.29 µM	6.59 µM	2.66 µM	25.3	4.48 µM	> 100 µM	5.28	33.9 µM						
CN1C(=O)[C@@H]2[C@@H]3c4ccccc4N[C@@H]3c3[nH]c4ccccc4c3[C@@H]2C1=O	67.9 µM	47 µM	64.4 µM	> 100 µM		65.3	63.1 µM	> 100 µM	> 100	31.4 µM						
Cc1ccc(Cc2n[nH]c(=O)n2N2C(=O)c3ccccc3C2=O)cc1	> 100 µM	> 100 µM		> 100 µM	> 100 µM	> 100	> 100 µM	> 100 µM	> 100	> 100 µM						
COc1ccccc1[C@@H]1CCC2CC[C@@H](c3ccccc3OC)[N+]21Cc1ccccc1 (stereo partly specified)	22.3 µM	8.57 µM	8.53 µM	18.8 µM	12 µM	7.66	13.8 µM	6.73 µM	12.6							
CN(C)C1(c2cc3ccccc3s2)CCCCC1		> 100 µM	84.6 µM	> 100 µM	35.7 µM	> 100	> 100 µM	> 100 µM	> 100	> 100 µM						
N#CCN1CCCN(CC#N)CCN(CC#N)CCCN(CC#N)CC1	> 100 µM	> 100 µM	> 100 µM	> 100 µM	> 100 µM	> 100	> 100 µM	> 100 µM	> 100	> 100 µM						
N#CC(C#N)C1CN2CCC1CC2 (stereo unspecified)	> 100 µM	> 100 µM	> 100 µM	> 100 µM	> 100 µM	> 100	> 100 µM	> 100 µM	> 100	> 100 µM						
O=C1C=CC(=O)[C@H]2C3C=CC(C4C3C3(Cl)C(Cl)=C(Cl)[C@]4(Cl)C3(Cl)Cl)[C@@H]12 (stereo partly specified)	18.6 µM	25.2 µM	13.8 µM	30.2 µM	16 µM	31.7	20.7 µM	23.5 µM	15.8	15.9 µM						
Cc1cc(N)c2cc(NC(=O)Nc3ccc4nc(C)cc(N)c4c3)ccc2n1	> 100 µM	> 100 µM		> 100 µM	> 100 µM	> 100	> 100 µM	> 100 µM	> 100	> 100 µM						
CCN(CCN(CC)C(=O)NC)C(=O)NC	> 100 µM	> 100 µM	> 100 µM		> 100 µM	> 100	> 100 µM	> 100 µM	> 100	> 100 µM						
CC1(C)OC2OC(C(=O)c3ccccc3)C3OC(C)(C)OC3C2O1 (stereo unspecified)		> 100 µM	> 100 µM	> 100 µM	> 100 µM	> 100	> 100 µM	> 100 µM	> 100	> 100 µM						
COc1cc(C(=O)N(C(=O)N2CCCCC2)c2ccccc2)cc(OC)c1OC	> 100 µM	> 100 µM		> 100 µM	> 100 µM	> 100	> 100 µM	> 100 µM	> 100	> 100 µM						
CN(C)CCCN=c1c2ccccc2n(C)c2[nH]c(=O)n(C)c(=O)c12	26.8 µM	32.5 µM	30.1 µM	> 100 µM	17.1 µM	38	> 100 µM	18.4 µM	16.2	11.5 µM						
COc1cccc(/C=N/NC(=O)CN(C)C)c1O	> 100 µM	> 100 µM	> 100 µM	> 100 µM	> 100 µM	> 100	> 100 µM	> 100 µM	> 100	> 100 µM						
O=C1c2c(F)c(F)c(F)c(F)c2SC2=Nc3cccc4cccc(c34)N12	15.9 µM	30.9 µM	11.1 µM	29 µM	13.1 µM	35.2	17.7 µM	28.7 µM	16.7	29.3 µM						
CC(=O)CC12NC(=O)N(C)N=C1N(C)C(=O)N(C)C2=O (stereo unspecified)	> 100 µM	> 100 µM	> 100 µM	> 100 µM	> 100 µM	> 100	> 100 µM	> 100 µM	43.3	> 100 µM						
COC(=O)C1=C(C)NC2=C(C(=O)c3ccccc32)C1c1cn[nH]c1-c1ccccc1 (stereo unspecified)	> 100 µM	> 100 µM	> 100 µM	> 100 µM	> 100 µM	> 100	> 100 µM	> 100 µM	> 100	> 100 µM						

Structure (SMILES)	TGI [1]	TGI [2]	TGI [3]	TGI [4]	TGI [5]	TGI [6] [µM]	TGI [7]	TGI [8]	TGI [9] [µM]	TGI [10]	GI50 [3] [nM]	GI50 [4] [nM]	GI50 [5] [nM]	GI50 [10] [nM]	GI50 [7] [nM]	GI50 [1] [nM]
CCOC(=O)[C@@]12NN=N[C@@H]1[C@H]1CO[C@H](c3ccccc3)N1C2=O	19.5 µM	27.5 µM	13.9 µM	24.8 µM	33 µM	24.1	23.7 µM		25.7	20.5 µM						
COc1cc(/C=C/C2=NN(c3cccc(S(=O)(=O)O)c3)C3(C2)SCC(=O)N3c2nc3ccccc3s2)cc(OC)c1OC (stereo unspecified)	> 100 µM		> 100 µM	> 100 µM	> 100 µM	> 100	> 100 µM	> 100 µM	> 100	> 100 µM						
COC(=O)[C@@H](NC(=O)c1ccc(CNC(=O)/C(C)=C/c2ccccc2)cc1)C(C)C	> 100 µM	> 100 µM	> 100 µM	> 100 µM	> 100 µM	> 100	> 100 µM	> 100 µM	> 100	> 100 µM						
O=c1cc(NNc2cccc(F)c2)[nH]c(=S)[nH]1	> 100 µM	> 100 µM			> 100 µM	> 100	> 100 µM	> 100 µM	> 100	> 100 µM						
NCCN(CCN)/[N+]([O-])=N/O	> 100 µM	> 100 µM	> 100 µM	> 100 µM	> 100 µM	> 100	> 100 µM	> 100 µM	> 100	> 100 µM						
O=C(c1cccnc1)N1N=C(c2ccc3c(c2)OCO3)CC1(O)c1cc(F)c(Cl)cc1Cl (stereo unspecified)	77.5 µM	59.4 µM	26.1 µM	> 100 µM	> 100 µM		38.4 µM	33.3 µM	> 100	36.9 µM						
CCc1n[nH]c(=O)n1N=C(c1ccccc1)c1ccccc1	> 100 µM	> 100 µM	> 100 µM	> 100 µM	> 100 µM	> 100	> 100 µM	> 100 µM	> 100	> 100 µM						
Cc1cc2c(cc1-c1cc3c(cc1C)C(C(C)C)=C(O)C(=O)/C3=C\Nc1ccccn1)/C(=C/Nc1ccccn1)C(=O)C(O)=C2C(C)C	> 100 µM	> 100 µM	> 100 µM	> 100 µM	> 100 µM	> 100	> 100 µM	77.8 µM	> 100	> 100 µM						
O=C1C(c2c(O)[nH]c3ccc(I)cc23)=Nc2ccccc21	> 86.3 µM	> 64.4 µM	34.6 µM	> 96.5 µM	> 100 µM	5.57	4.74 µM	6.94 µM	> 100	> 88.6 µM						
CCOC(=O)[C@H](CO)Nc1c(O)c2c(c(O)c1Cl)C(=O)C=CC2=O	> 10 µM	> 10 µM	> 10 µM	> 10 µM	> 10 µM		> 10 µM	> 10 µM	> 10	> 10 µM						
CCOC(=O)C(NC(=O)c1ccccc1)(Nc1ccc(S(=O)(=O)Nc2ccc(OC)nn2)cc1)C(F)(F)F (stereo unspecified)	> 100 µM	> 100 µM	> 100 µM	> 100 µM	> 100 µM		> 100 µM	> 100 µM	> 100	> 100 µM						
O=C1CCc2ccccc2O1	> 100 µM	> 100 µM	> 100 µM	> 100 µM		> 100	> 100 µM	> 100 µM	> 100	> 100 µM						
O=C(NCCCc1cn[nH]c(=O)n1)c1cccc2nc3ccccc3nc12	> 100 µM	> 100 µM	> 100 µM	> 100 µM	> 100 µM	> 100	> 100 µM	> 100 µM	> 100	> 100 µM						
COc1cc(C2c3cc4c(cc3OC(NNc3ccccc3)C2C)OCO4)cc(OC)c1O (stereo unspecified)	21.3 µM	11.3 µM	13.7 µM	> 92 µM	13.3 µM	16.3	23.8 µM	14.6 µM	2.75	17.7 µM						
N#Cc1c(O)c(C=O)c(=O)n2c1[nH]c1ccccc12	> 100 µM	> 100 µM	> 100 µM	> 100 µM	> 100 µM	> 100	> 100 µM	> 100 µM	> 100	> 100 µM						
O=C(CBr)NCCc1c[nH]c2ccccc12	11.3 µM	28.6 µM	2.41 µM	1.91 µM	3.24 µM	41.2	> 48.3 µM	2.64 µM	4.44	15 µM						
Cc1sc2nc3n(c(=O)c2c1C)N=C(c1ccccc1)CS3	> 100 µM	> 100 µM	> 100 µM	> 100 µM		> 100	> 100 µM	> 100 µM	> 100	> 100 µM						
COc1ccc2nc3c([N+](=O)[O-])ccc(NCCCN(C)C)c3c(N)c2c1	3.04 µM	2.95 µM	2.81 µM	3.71 µM	3.61 µM		4.69 µM	3.82 µM	3.47	2.59 µM						
Cc1ccc(S(=O)(=O)NCCCSCCO)cc1	> 100 µM	> 100 µM	> 100 µM		> 100 µM	> 100	> 100 µM	> 100 µM	> 100	> 100 µM						
CC(=O)OC12OC(C)(C3C(=O)N(c4ccccc4)C(=O)C31)N(c1ccccc1)C2=O (stereo unspecified)	> 100 µM	> 100 µM	> 100 µM	> 100 µM	> 100 µM		> 100 µM	> 100 µM	> 100	> 100 µM						
O=C1C(=O)N(C23CC4CC(CC(C4)C2)C3)C(=S)N1c1ccccc1	> 100 µM	> 100 µM	> 100 µM	> 100 µM		> 100	> 100 µM	> 100 µM	> 100	> 100 µM						
